# Experimental data: the NIST ThermoML archive (doi:10.1016/j.jct.2013.12.002)
# ± gives the expanded uncertainty stated by the source.
# Assay: osmotic coefficient (dimensionless); mn = molality of the nth substance listed, in mol/kg
# Settings: 323.15 K, 101 kPa, Liquid, Knauer K-7000 vapour pressure osmometer
compound,measurement,setting,value
CCCC[N+]1(C)CCCC1.N#CN=C=[N-] [1-butyl-1-methylpyrrolidinium dicyanamide] + CCC(C)O,osmotic coefficient,m1 = 0.0878,0.793 ± 0.014
same,osmotic coefficient,m1 = 0.1149,0.755 ± 0.015
same,osmotic coefficient,m1 = 0.1863,0.705 ± 0.016
same,osmotic coefficient,m1 = 0.2981,0.641 ± 0.017
same,osmotic coefficient,m1 = 0.4092,0.621 ± 0.018
same,osmotic coefficient,m1 = 0.5397,0.591 ± 0.019
same,osmotic coefficient,m1 = 0.8291,0.58 ± 0.019
same,osmotic coefficient,m1 = 1.213,0.555 ± 0.02
same,osmotic coefficient,m1 = 1.611,0.556 ± 0.02
same,osmotic coefficient,m1 = 2.019,0.548 ± 0.02
same,osmotic coefficient,m1 = 2.4,0.539 ± 0.02
same,osmotic coefficient,m1 = 2.776,0.533 ± 0.02
same,osmotic coefficient,m1 = 3.307,0.523 ± 0.021
CCCC[N+]1(C)CCCC1.N#CN=C=[N-] [1-butyl-1-methylpyrrolidinium dicyanamide] + CC(C)O,osmotic coefficient,m1 = 0.0709,0.942 ± 0.013
same,osmotic coefficient,m1 = 0.1087,0.878 ± 0.013
same,osmotic coefficient,m1 = 0.1972,0.827 ± 0.014
same,osmotic coefficient,m1 = 0.2934,0.778 ± 0.014
same,osmotic coefficient,m1 = 0.3976,0.75 ± 0.015
same,osmotic coefficient,m1 = 0.4909,0.722 ± 0.016
same,osmotic coefficient,m1 = 0.7769,0.685 ± 0.016
same,osmotic coefficient,m1 = 1.175,0.645 ± 0.017
same,osmotic coefficient,m1 = 1.595,0.631 ± 0.018
same,osmotic coefficient,m1 = 1.998,0.612 ± 0.018
same,osmotic coefficient,m1 = 2.419,0.608 ± 0.018
same,osmotic coefficient,m1 = 2.821,0.595 ± 0.019
same,osmotic coefficient,m1 = 3.296,0.59 ± 0.019
CCCC[N+]1(C)CCCC1.N#CN=C=[N-] [1-butyl-1-methylpyrrolidinium dicyanamide] + CCCCCO,osmotic coefficient,m1 = 0.0446,0.63 ± 0.018
same,osmotic coefficient,m1 = 0.0818,0.59 ± 0.019
same,osmotic coefficient,m1 = 0.1078,0.558 ± 0.02
same,osmotic coefficient,m1 = 0.1865,0.512 ± 0.021
same,osmotic coefficient,m1 = 0.299,0.491 ± 0.022
same,osmotic coefficient,m1 = 0.3928,0.477 ± 0.022
same,osmotic coefficient,m1 = 0.5108,0.467 ± 0.022
same,osmotic coefficient,m1 = 0.8086,0.453 ± 0.023
same,osmotic coefficient,m1 = 1.191,0.444 ± 0.023
same,osmotic coefficient,m1 = 1.598,0.435 ± 0.023
same,osmotic coefficient,m1 = 2.004,0.425 ± 0.024
same,osmotic coefficient,m1 = 2.406,0.417 ± 0.024
same,osmotic coefficient,m1 = 2.798,0.409 ± 0.024
same,osmotic coefficient,m1 = 3.063,0.404 ± 0.024
CCCC[N+]1(C)CCCC1.N#CN=C=[N-] [1-butyl-1-methylpyrrolidinium dicyanamide] + CCCCO,osmotic coefficient,m1 = 0.0577,0.734 ± 0.017
same,osmotic coefficient,m1 = 0.0761,0.68 ± 0.017
same,osmotic coefficient,m1 = 0.1089,0.665 ± 0.017
same,osmotic coefficient,m1 = 0.2006,0.624 ± 0.018
same,osmotic coefficient,m1 = 0.296,0.602 ± 0.019
same,osmotic coefficient,m1 = 0.4011,0.587 ± 0.019
same,osmotic coefficient,m1 = 0.4745,0.581 ± 0.019
same,osmotic coefficient,m1 = 0.8117,0.57 ± 0.019
same,osmotic coefficient,m1 = 1.214,0.551 ± 0.02
same,osmotic coefficient,m1 = 1.617,0.541 ± 0.02
same,osmotic coefficient,m1 = 2.033,0.532 ± 0.02
same,osmotic coefficient,m1 = 2.43,0.52 ± 0.021
same,osmotic coefficient,m1 = 2.845,0.516 ± 0.021
same,osmotic coefficient,m1 = 3.308,0.508 ± 0.021
CCCC[N+]1(C)CCCC1.N#CN=C=[N-] [1-butyl-1-methylpyrrolidinium dicyanamide] + CCCO,osmotic coefficient,m1 = 0.0836,0.9 ± 0.013
same,osmotic coefficient,m1 = 0.119,0.858 ± 0.013
same,osmotic coefficient,m1 = 0.2054,0.8 ± 0.014
same,osmotic coefficient,m1 = 0.2962,0.743 ± 0.015
same,osmotic coefficient,m1 = 0.4029,0.71 ± 0.016
same,osmotic coefficient,m1 = 0.502,0.689 ± 0.016
same,osmotic coefficient,m1 = 0.7791,0.653 ± 0.017
same,osmotic coefficient,m1 = 1.182,0.614 ± 0.018
same,osmotic coefficient,m1 = 1.61,0.587 ± 0.019
same,osmotic coefficient,m1 = 2,0.576 ± 0.019
same,osmotic coefficient,m1 = 2.442,0.565 ± 0.02
same,osmotic coefficient,m1 = 2.865,0.56 ± 0.02
